Results as given in article PMC12481029, “Design, synthesis, antiproliferative assessments, and computational studies of new quinolin-2(1H)-ones as dual EGFR/HER-2 inhibitors” (Frontiers in Chemistry, 2025).
Where “and” joins values, the source holds several entries; their conditions need not be identical. Identical values can stand only once. Like-named read-outs stand apart in the source and are kept apart here.

What was measured:
[1] = system: Caspase-8; assay: Caspase-8 activation assay; type: cell-based, human; details: MCF-7 cells; for Caspase-8 Fold change: versus control
Description: (§1) Refer to Supplementary Appendix A.
(§2) (Cells are Plated in a density of 1.2 – 1.8 × 10,000 cells/well in a volume of 100µl complete growth medium + 100 ul of the tested compound per well in a 96-well plate for 24 hours before the enzyme assay for Tubulin.). The absorbance of each microwell was read on a spectro-photometer at 450 nm. A standard curve is prepared from 7human Caspase-8 standard dilutions and human Caspase-8 concentration determined.

[2] = system: colon (HT-29) cancer cell line; assay: Antiproliferative assay, HT-29; type: cell-based; details: Homo sapiens, read-out: Antiproliferative activity IC50 ± SEM, HT-29
[3] = biological target: EGFR (Homo sapiens, UniProt P00533); assay: EGFR inhibitory assay (EGFR-TK test); details: EGFR inhibition IC50 ± SEM
Sequence of EGFR (P00533 669-1210): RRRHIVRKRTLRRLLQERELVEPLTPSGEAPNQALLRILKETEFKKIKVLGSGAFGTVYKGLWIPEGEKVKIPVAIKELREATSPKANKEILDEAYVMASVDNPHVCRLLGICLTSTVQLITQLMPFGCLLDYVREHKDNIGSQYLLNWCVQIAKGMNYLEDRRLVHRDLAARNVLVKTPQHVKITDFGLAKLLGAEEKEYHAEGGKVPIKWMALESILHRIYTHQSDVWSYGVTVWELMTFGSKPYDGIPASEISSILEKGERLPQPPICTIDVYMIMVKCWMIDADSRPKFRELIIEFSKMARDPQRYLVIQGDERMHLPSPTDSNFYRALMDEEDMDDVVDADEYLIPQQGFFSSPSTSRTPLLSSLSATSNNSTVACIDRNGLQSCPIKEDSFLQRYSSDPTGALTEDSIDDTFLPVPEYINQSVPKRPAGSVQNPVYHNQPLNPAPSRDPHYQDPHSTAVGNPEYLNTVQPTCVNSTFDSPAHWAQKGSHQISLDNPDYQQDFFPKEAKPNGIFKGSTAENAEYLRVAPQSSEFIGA
Description: 5ʹ upstream to the EGFR sequence comprised a sequence that encoded (His)6. Sf-9 cells were infected for 72h for protein expression. The pellets of Sf-9 cells were solubilized in a buffer containing sodium vanadate (100 μM), aprotinin (10 μg/mL), triton (1%), HEPES buffer(50mM), ammonium molybdate (10 μM), benzamidine HCl (16 μg/mL), NaCl (10 mM),leupeptin (10 μg/mL) and pepstatin (10 μg/mL) at 0°C for 20 min at pH 7.4, followed by centrifugation for 20 min. To eliminate the nonspecifically bound material, a Ni-NTA super flow packed column was used to pass through and wash the crude extract supernatant first with 10mM and then with 100 mM imidazole. Histidine-linked proteins were first eluted with 250 and then with 500 mM imidazole subsequent to dialysis against NaCl (50 mM), HEPES (20 mM), glycerol (10%) and 1 μg/mL each of aprotinin, leupeptin and pepstatin for 120 min. The purification was performed either at 4 °C or on ice. To record autophosphorylation level, EGFR kinase assay was carried out on the basis of DELFIA/Time-Resolved Fluorometry. […] Each compound (10 μL) was incubated with recombinant enzyme (10 μL, 5 ng for EGFR, 1:80 dilution in 100 mM HEPES) for 10 min at 25 °C, subsequent to the addition of 5X buffer (10 μL, containing 2 mM MnCl2, 100 μM Na3VO4, 20 mM HEPES and 1 mM DTT) and ATP-MgCl2 (20 μL, containing 0.1 mM ATP and 50 mM MgCl2) and incubation for 1h. The negative and positive controls were included in each plate by the incubation of enzyme either with or without ATP-MgCl2. The liquid was removed after incubation and the plates were washed thrice using a wash buffer. The Europium-tagged antiphosphotyrosine antibody (75 μL, 400 ng) was added to each well followed by incubation of 1h and then washing of the plates using buffer. […] The autophosphorylation percentage inhibition by compounds was calculated using the following equation:
The majority of signals detected by antiphosphotyrosine antibody were from EGFR because the enzyme preparation contained low impurities.

[4] = system: lung (A-549) cancer cell line; assay: Antiproliferative assay, A-549; type: cell-based; details: Homo sapiens, A549; read-out: Antiproliferative activity IC50 ± SEM, A-549
Excerpt: (§3) The MTT assay ([Al-Wahaibi et al., 2022]; [Mahmoud et al., 2023]) was employed to assess the antiproliferative effects of compounds 3a-h and 5a-g on four human cancer cell lines: colon (HT-29) cancer, pancreatic (Panc-1) cancer, lung (A-549) cancer, and breast (MCF-7) cancer cell lines. Erlotinib was applied as a reference. Table 1 presents the median inhibitory concentration (IC50) and average IC50 (GI50) values for each compound evaluated on the four cancer cell lines.
(§4) Compounds 3a-h and 5a-g were tested for their antiproliferative activities on four human cancer cell lines: colon (HT-29), pancreatic (Panc-1), lung (A-549), and breast (MCF-7) using the MTT assay ([Al-Wahaibi et al., 2022]; [Mahmoud et al., 2023]). Erlotinib was applied as a reference.
(§5) To explore the antiproliferative potential of compounds propidium iodide fluorescence assay was performed using different cell lines such as Panc-1 (pancreas cancer cell line), MCF-7 (breast cancer cell line), HT-29 (colon cancer cell line) and A-549 (epithelial cancer cell line), respectively. To calculate the total nuclear DNA, a fluorescent dye (propidium iodide, PI) is used which can attach to the DNA, thus offering a quick and precise technique. PI cannot pass through the cell membrane and its signal intensity can be considered as directly proportional to quantity of cellular DNA. Cells whose cell membranes are damaged or have changed permeability are counted as dead ones. The assay was performed by seeding the cells of different cell lines at a density of 3000-7500 cells/well (in 200μl medium) in culture plates followed by incubation for 24h at 37 °C in humidified 5%CO2/95% air atmospheric conditions. The medium was removed; the compounds were added to the plates at 10 μM concentrations (in 0.1% DMSO) in triplicates, followed by incubation for 48h. DMSO (0.1%) was used as control. After incubation, medium was removed followed by the addition of PI (25 μl, 50μg/mL in water/medium) to each well of the plates. At -80 °C, the plates were allowed to freeze for 24 h, followed by thawing at 25 °C. A fluorometer (Polar-Star BMG Tech) was used to record the readings at excitation and emission wavelengths of 530 and 620 nm for each well. The percentage cytotoxicity of compounds was calculated using the following formula: […]

[5] = system: Cytochrome C; assay: Cytochrome C assay; details: MCF-7 cells; for Cytochrome C Fold change: versus control
Description: This lysate was diluted in Standard Diluent Buffer over the range of the assay and measured for cytochrome C content. (Cells are Plated in cells/well in a volume of 100µl complete growth medium + 100 µl of the tested compound + 50 µl of 1X biotin conjugated antibody+ 100 µl of 1X streptavidin-HRP+ 100 µL TMB substrate solution of per well in a 96-well plate for 24 hours before assay).

[6] = system: four human cancer cell lines (A-549, MCF-7, Panc-1, HT-29); assay: Antiproliferative assay, average over four cancer cell lines; type: cell-based; details: for GI50: Homo sapiens, average IC50 over the four cancer cell lines
[7] = system: Caspase-3; assay: Caspase-3 activation assay; type: cell-based, human; details: MCF-7 cells; for Caspase-3 Fold change: versus control
Description: as §1
Allow all reagents to reach room temperature before use. Gently mix all liquid reagents prior to use. Determine the number of 8-well strips needed for the assay. Insert these in the frame(s) for current use. Add 100 μl of the Standard Diluent Buffer to the zero standard wells. Well(s) reserved for chromogen blank should be left empty. Add 100 μl of standards and controls or diluted samples to the appropriate microtiter wells. The sample dilution chosen should be optimized for each experimental system. Tap gently on side of plate to mix. Cover wells with plate cover and incubate for 2 hours at room temperature. Thoroughly aspirate or decant solution from wells and discard the liquid, Wash wells 4 times. […] Tap gently on the side of the plate to mix. Cover plate with plate cover and incubate for 1 hour at room temperature. Thoroughly aspirate or decant solution from wells and discard the liquid, Wash wells 4 times. Add 100 μl Anti-Rabbit IgG HRP Working Solution to each well except the chromogen blank(s). Prepare the working dilution as described in Preparing IgG HRP. Cover wells with the plate cover and incubate for 30 minutes at room temperature. Thoroughly aspirate or decant solution from wells and discard the liquid. Wash wells 4 times. Add 100 μl of Stabilized Chromogen to each well. The liquid in the wells will begin to turn blue. Incubate for 30 minutes at room temperature and in the dark. The incubation time for chromogen substrate is often determined by the microtiter plate reader used. Many plate readers have the capacity to record a maximum optical density (O.D.) of 2.0. The O.D. values should be monitored, and the substrate reaction stopped before the O.D. of the positive wells exceeds the limits of the instrument. The O.D. values at 450 nm can only be read after the Stop Solution has been added to each well. […] Add 100 μl of Stop Solution to each well. Tap side of plate gently to mix. The solution in the wells should change from blue to yellow. Read the absorbance of each well at 450 nm having blanked the plate reader against a chromogen blank composed of 100 μl each of Stabilized Chromogen and Stop Solution. Read the plate within 2 hours after adding the Stop Solution. Use a curve fitting software to generate the standard curve. […] Read the concentrations for unknown samples and controls from the standard curve. Multiply value(s) obtained for sample(s) by the appropriate dilution factor to correct for the dilution in step 3.

[8] = system: pancreatic (Panc-1) cancer cell line; assay: Antiproliferative assay, Panc-1; type: cell-based; details: Homo sapiens, read-out: Antiproliferative activity IC50 ± SEM, Panc-1
Excerpt: as §3, §4, §5

[9] = system: Caspase-9; assay: Caspase-9 activation assay; type: cell-based, human; details: MCF-7 cells; for Caspase-9 Fold change: versus control
Description: To elucidate the apoptotic mechanism of compounds 3d and 5a, whether via the intrinsic or extrinsic pathway, their impact on caspase-8 and caspase-9 was evaluated.
RPMI 1640 with 10% FBS was used to assist the cells grow at 37 °C, and then the cells were treated with the compounds being studied to check the activity of caspase-3, -8, and -9 ([Hisham et al., 2019]). Refer to Supplementary Appendix A.
as §2, with “Cells were obtained from American Type Culture Collection, cells were grown in RPMI 1640 containing 10% fetal bovine serum at 37°C, stimulated with the compounds to be tested for caspase8, and lysed with Cell Extraction Buffer. This lysate was diluted in Standard Diluent Buffer over the range of the assay and measured for human active caspase-8 content. (Cells” for “(Cells”

[10] = system: Bcl-2; assay: Bcl-2 level assay; details: MCF-7 cells; for Bcl-2 Fold reduction: versus control
Description: Mix all reagents thoroughly without foaming before use. Wash the microwells twice with approximately 300 μL Wash Buffer per well with thorough aspiration of microwell contents between washes. Take caution not to scratch the surface of the microwells. After the last wash, empty the wells and tap microwell strips on absorbent pad or paper towel to remove excess Wash Buffer. Use the microwell strips immediately after washing or place upside down on a wet absorbent paper for not longer than 15 minutes. […] Add 100 μL of Sample Diluent in duplicate to all standard wells and to the blank wells. […] Add 100 μL of Sample Diluent, in duplicate, to the blank wells. Add 80 μL of Sample Diluent, in duplicate, to the sample wells. Add 20 μL of each Sample, in duplicate, to the designated wells. Add 50 μL of diluted biotin-conjugate to all wells, including the blank wells. Cover with a plate cover and incubate at room temperature, on a microplate shaker at 100 rpm if available, for 2 hours. Remove plate cover and empty the wells. Wash microwell strips 3 times as described in step 2. Add 100 μL of diluted Streptavidin-HRP to all wells, including the blank wells. Cover with a plate cover and incubate at room temperature, on a microplate shaker at 100 rpm if available, for 1 hour. Remove plate cover and empty the wells. Wash microwell strips 3 times as described in step 2. […] Pipette 100 μl of mixed TMB Substrate Solution to all wells, including the blanks. Incubate the microwell strips at room temperature (18° to 25°C) for about 15 minutes, if available on a rotator set at 100 rpm. Avoid direct exposure to intense light. The point, at which the substrate reaction is stopped, is often determined by the ELISA reader. Many ELISA readers record absorbance only up to 2.0 O.D. Therefore, the color development within individual microwells must be watched by the person running the assay and the substrate reaction stopped before positive wells are no longer properly detectable. Stop the enzyme reaction by quickly pipetting 100 μL of Stop Solution into each well, including the blank wells. It is important that the Stop Solution is spread quickly and uniformly throughout the microwells to completely inactivate the enzyme. Results must be read immediately after the Stop Solution is added or within one hour if the microwell strips are stored at 2 - 8°C in the dark. Read absorbance of each microwell on a spectrophotometer using 450 nm as the primary wavelength.

[11] = system: Bax; assay: Bax level assay; details: MCF-7 cells; for Bax Fold change: versus control
Description: Bring all reagents, except the human Bax-α Standard, to room temperature for at least 30 minutes prior to opening. The human Bax-α Standard solution should not be left at room temperature for more than 10 minutes. All standards, controls and samples should be run in duplicate. Refer to the Assay Layout Sheet to determine the number of wells to be used and put any remaining wells with the desiccant back into the pouch and seal the ziploc. Store unused wells at 4 °C. Pipet 100 μL of Assay Buffer into the S0 (0 pg/mL standard) wells. Pipet 100 μL of Standards #1 through #6 into the appropriate wells. Pipet 100 μL of the Samples into the appropriate wells. Tap the plate gently to mix the contents. Seal the plate and incubate at room temperature on a plate shaker for 1 hour at ~500 rpm. Empty the contents of the wells and wash by adding 400 μL of wash solution to every well. Repeat the wash 4 more times for a total of 5 washes. After the final wash, empty or aspirate the wells and firmly tap the plate on a lint free paper towel to remove any remaining wash buffer. Pipet 100 μL of yellow Antibody into each well, except the Blank. Seal the plate and incubate at room temperature on a plate shaker for 1 hour at ~500 rpm. Empty the contents of the wells and wash by adding 400 μL of wash solution to every well. Repeat the wash 4 more times for a total of 5 washes. After the final wash, empty or aspirate the wells and firmly tap the plate on a lint free paper towel to remove any remaining wash buffer. Add 100 μL of blue Conjugate to each well, except the Blank. Seal the plate and incubate at room temperature on a plate shaker for 30 minutes at ~500 rpm. Empty the contents of the wells and wash by adding 400 μL of wash solution to every well. Repeat the wash 4 more times for a total of 5 washes. After the final wash, empty or aspirate the wells and firmly tap the plate on a lint free paper towel to remove any remaining wash buffer. Pipet 100 μL of Substrate Solution into each well. Incubate for 30 minutes at room temperature on a plate shaker at ~500 rpm. Pipet 100 μL Stop Solution to each well. Blank the plate reader against the Blank wells, read the optical density at 450 nm. Calculate the average net Optical Density (OD) bound for each standard and sample by subtracting the average Blank OD from the average OD for each standard and sample. Using linear graph paper, plot the Average Net OD for each standard versus Bax concentration in each standard. Approximate a straight line through the points. The concentration of Bax in the unknowns can be determined by interpolation.

[12] = system: breast (MCF-7) cancer cell line; assay: Antiproliferative assay, MCF-7; type: cell-based; details: Homo sapiens, MCF7; read-out: Antiproliferative activity IC50 ± SEM, MCF-7
Excerpt: as §3, §4, §5

[13] = Cell viability assay (MTT), normal mammary cells; details: human, MCF-10A normal mammary epithelial cells
Description: (§6) MTT assay was performed to investigate the effect of the synthesized compounds on mammary epithelial cells (MCF-10A). The cells were propagated in medium consisting of Ham's F-12 medium/ Dulbecco's modified Eagle's medium (DMEM) (1:1) supplemented with 10% foetal calf serum, 2 mM glutamine, insulin (10 μg/mL), hydrocortisone (500 ng/mL) and epidermal growth factor (20 ng/mL). Trypsin ethylenediamine tetra acetic acid (EDTA) was used to passage the cells after every 2-3 days. 96-well flat-bottomed cell culture plates were used to seed the cells at a density of 10^4 cells mL^-1. The medium was aspirated from all the wells of culture plates after 24 h followed by the addition of synthesized compounds (in 200 μL medium to yield a final concentration of 0.1% (v/v) dimethyl sulfoxide) into individual wells of the plates. Four wells were designated to a single compound. The plates were allowed to incubate at 37°C for 96 h. Afterwards, the medium was aspirated and 3-[4,5-dimethylthiazol-2-yl]-2,5-diphenyltetrazolium bromide (MTT) (0.4 mg/mL) in medium was added to each well and subsequently incubated for 3 h. The medium was aspirated and 150 μL dimethyl sulfoxide (DMSO) was added to each well. The plates were vortexed followed by the measurement of absorbance at 540 nm on a microplate reader.

[14] = biological target: HER-2 (Homo sapiens, UniProt P04626); assay: HER-2 inhibitory assay (ADP-Glo kinase assay)
Sequence of HER-2 (P04626 676-1255 limits assumed): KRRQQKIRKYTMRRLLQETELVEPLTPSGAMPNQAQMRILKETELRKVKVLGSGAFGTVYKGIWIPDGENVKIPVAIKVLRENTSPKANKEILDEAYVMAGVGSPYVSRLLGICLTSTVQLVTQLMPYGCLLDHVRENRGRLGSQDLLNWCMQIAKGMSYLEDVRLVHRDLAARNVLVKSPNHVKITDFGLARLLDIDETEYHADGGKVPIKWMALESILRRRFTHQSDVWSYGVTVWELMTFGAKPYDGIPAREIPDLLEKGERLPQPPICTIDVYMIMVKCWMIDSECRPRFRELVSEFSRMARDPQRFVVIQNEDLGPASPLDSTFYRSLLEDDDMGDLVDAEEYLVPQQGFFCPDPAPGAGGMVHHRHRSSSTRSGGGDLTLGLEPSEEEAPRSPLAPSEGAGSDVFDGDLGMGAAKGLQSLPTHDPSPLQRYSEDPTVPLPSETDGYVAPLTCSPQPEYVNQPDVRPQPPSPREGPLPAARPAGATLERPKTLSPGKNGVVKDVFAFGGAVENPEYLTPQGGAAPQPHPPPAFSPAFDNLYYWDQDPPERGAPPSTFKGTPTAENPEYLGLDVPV
Description: The ADP-Glo™ Kinase Assay was used for kinase activity detection, related kinases information: HER-2 (ab60866, Abcam), with a concentration of 100 ng/mL. Target compounds were dissolved in DMSO to obtain drug solutions with different concentrations, and the compound concentrations in the final reaction system (100 μL) were 1 nM, 20 nM, 40 nM, 80 nM, and 100 nM, respectively. 10μL of the solution containing compounds was transferred to a 96-well plate, then added 40 μL of 1 × kinase buffer (50 mM HEPES, pH 7.5) to each well, and mixed the mixture in the 96-well plate on a shaker for 10 min. Next, added 25 μL of ADP-Glo™ reagent to the above wells, mixed and incubated for another 40 min. Distributed 10 μL kinase detection reagent to the reaction and incubated for 30 min. Finally, the full-wavelength microplate reader was used to record the OD value.

[15] = in vitro; details: human
Description: as §6

[16] = system: MCF-7 human breast cancer cell line; assay: Flow cytometric cell cycle analysis; type: cell-based
[17] = system: panel of cancer cell lines; design: method as in Voigtlaender et al., 2018; details: ref Voigtlaender et al., 2018; read-out: GI50 against a panel of cancer cell lines; cited from earlier work
[18] = system: breast (MCF-7) cancer cell line; design: method as in Voigtlaender et al., 2018; details: ref Voigtlaender et al., 2018, cited from earlier work; for IC50: read-out: IC50 against the MCF-7 cell line

SMILES	Caspase-8 Conc [1]	Caspase-8 Fold change [1]	IC50 [2]	IC50 [3]	IC50 [4]	Cytochrome C Conc [5]	Cytochrome C Fold change [5]	GI50 [6]	Caspase-3 Conc [7]	Caspase-3 Fold change [7]	IC50 [8]	Caspase-9 Conc [9]	Caspase-9 Fold change [9]	Bcl-2 Conc [10]	Bcl-2 Fold reduction [10]	Bax Conc [11]	Bax Fold change [11]	IC50 [12]	IC50 [14]	IC50 [18]	further results
Cc1ccc(S(=O)(=O)N/N=C/c2c(O)c3ccccc3[nH]c2=O)cc1 [Compound 3d, (E)-N'-((4-hydroxy-2-oxo-1,2-dihydroquinolin-3-yl)methylene)-4-methyl benzenesulfonohydrazide]	2.10 ± 0.20 ng/mL	23	42 ± 4 nM	91 ± 6 nM	40 ± 3 nM	0.65 ng/mL	13	41 nM	515 ± 5 pg/mL	8.0	43 ± 4 nM	21 ± 3 ng/mL	21	0.80 ng/mL	6	310 pg/mL and 310 ± 2 pg/mL	34	37 ± 3 nM	38 ± 2 nM		Fold less effective than erlotinib (GI50) ([6]; ratio to erlotinib GI50 = […] nM): 1.3; viability at 4 days, 50 µM [13]: 91%
O=c1[nH]c2ccccc2c(O)c1/C=N/Nc1ccc([N+](=O)[O-])cc1[N+](=O)[O-] [Compound 5a, (E)-3-((2-(2,4-Dinitrophenyl)hydrazono)methyl)-4-hydroxyquinolin-2(1H)-one]	2.65 ± 0.25 ng/mL	29	38 ± 3 nM	87 ± 5 nM	36 ± 3 nM	0.85 ng/mL	17	37 nM	570 ± 5 pg/mL	9.0	38 ± 3 nM	24 ± 1 ng/mL	24	0.70 ng/mL	7	320 pg/mL and 320 ± 2 pg/mL	35	34 ± 3 nM	33 ± 2 nM		Fold less effective than erlotinib (GI50) [6]: 1.2; viability at 4 days, 50 µM [15]: 88%; Percentage of cells in G2/M phase [16]: 1.94%; Percentage of cells in S phase ([16]; control 26.82%): 15.65%; Times less potent than lapatinib, HER-2 inhibition ([14]; ratio to lapatinib IC50): 1.3
O=c1[nH]c2ccccc2c(O)c1/C=N/c1ccc(NS(=O)(=O)c2ncccn2)cc1 [Compound III]																				23 nM	GI50 [17]: 25 nM; Times more potent than erlotinib, MCF-7 ([18]; ratio of IC50 values): 1.8
C#Cc1cccc(Nc2ncnc3cc(OCCOC)c(OCCOC)cc23)c1 [Erlotinib, reference compound]			30 ± 3 nM		30 ± 3 nM						30 ± 3 nM							40 ± 3 nM		40 nM	
